# From ChEMBL document CHEMBL5247633, “Discovery of novel analogs of KHS101 as transforming acidic coiled coil containing protein 3 (TACC3) inhibitors for the treatment of glioblastoma” (Eur J Med Chem, 2022)
# System: not listed separately
# Assay: Antiproliferative activity against human U87 cells assessed as inhibition of cell growth incubated for 72 hrs by MTT assay
# Assay type: functional, cell-based, U-87MG ATCC
# Conditions: U-87 MG
row,SMILES,IC50
1,c1ccc(-c2nc(CNc3nccc(NC4CCCCC4)n3)cs2)cc1,11.6 µM
2,c1ccc(-c2nc(CNc3nccc(N4CCCCC4)n3)cs2)cc1,8.39 µM
3,c1ccc(-c2nc(CNc3nccc(N4CCC4)n3)cs2)cc1,21.5 µM
4,CC(C)CNc1cccc(NCc2csc(-c3ccccc3)n2)c1,> 100 µM

# System: SK-OV-3
# Assay: Antiproliferative activity against human SK-OV-3 cells assessed as cell growth inhibition measured after 72 hrs by MTT assay
# Assay type: functional, cell-based
# Conditions: SK-OV-3, 72 h
row,IC50,SMILES
1,12.5 µM,c1ccc(-c2nc(CNc3nccc(NC4CCCCC4)n3)cs2)cc1
2,21.4 µM,c1ccc(-c2nc(CNc3nccc(N4CCCCC4)n3)cs2)cc1
3,33.3 µM,c1ccc(-c2nc(CNc3nccc(N4CCC4)n3)cs2)cc1

# System: not listed separately
# Assay: Cytotoxicity against human U251 cells assessed as inhibition of cell growth measured after 72 hrs by MTT assay
# Assay type: toxicity, cell-based, U-251
# Conditions: not given
row,SMILES,IC50 at 72 h
1,c1ccc(-c2nc(CNc3nccc(NC4CCCCC4)n3)cs2)cc1,10.8 µM
2,c1ccc(-c2nc(CNc3nccc(N4CCCCC4)n3)cs2)cc1,12.3 µM
3,c1ccc(-c2nc(CNc3nccc(N4CCC4)n3)cs2)cc1,29.2 µM
4,CC(C)CNc1cccc(NCc2csc(-c3ccccc3)n2)c1,> 100 µM

# System: not listed separately
# Assay: Antiproliferative activity against human HLF1 cells assessed as cell growth inhibition measured after 72 hrs by MTT assay
# Assay type: functional, cell-based
# Conditions: HLF1, 72 h
row,SMILES,IC50
1,c1ccc(-c2nc(CNc3nccc(NC4CCCCC4)n3)cs2)cc1,28.2 µM
2,c1ccc(-c2nc(CNc3nccc(N4CCCCC4)n3)cs2)cc1,48.3 µM
3,c1ccc(-c2nc(CNc3nccc(N4CCC4)n3)cs2)cc1,91.1 µM

# System: JIMT-1
# Assay: Antiproliferative activity against human JIMT-1 cells assessed as cell growth inhibition measured after 72 hrs by MTT assay
# Assay type: functional, cell-based
# Conditions: JIMT-1, 72 h
row,SMILES,IC50
1,c1ccc(-c2nc(CNc3nccc(NC4CCCCC4)n3)cs2)cc1,19.4 µM
2,c1ccc(-c2nc(CNc3nccc(N4CCCCC4)n3)cs2)cc1,21.9 µM
3,c1ccc(-c2nc(CNc3nccc(N4CCC4)n3)cs2)cc1,25.7 µM

# System: MDA-MB-231
# Assay: Antiproliferative activity against human MDA-MB-231 cells assessed as cell growth inhibition measured after 72 hrs by MTT assay
# Assay type: functional, cell-based
# Conditions: MDA-MB-231, 72 h
row,IC50,SMILES
1,18.4 µM,c1ccc(-c2nc(CNc3nccc(NC4CCCCC4)n3)cs2)cc1
2,14.6 µM,c1ccc(-c2nc(CNc3nccc(N4CCCCC4)n3)cs2)cc1
3,27.7 µM,c1ccc(-c2nc(CNc3nccc(N4CCC4)n3)cs2)cc1
